Measurements published in PMC9230201, “Sustained Consumption of a Decaffeinated Green Coffee Nutraceutical Has Limited Effects on Phenolic Metabolism and Bioavailability in Overweight/Obese Subjects” (Nutrients, 2022).

Assays:
[1] = Fecal excretion of phenolic metabolites after intake of the GCPE nutraceutical; conditions: feces
Method: (§1) Participants attended the Human Nutrition Unit (HNU) at the Institute of Food Science, Technology and Nutrition (ICTAN-CSIC) on two consecutive days at the beginning of the intervention (week 0) and also on two consecutive days at the end of the study, after consuming daily two doses of the GCPE nutraceutical, providing 600 mg/d phenols, during two months (week 8). […] A licensed health care professional placed an intravenous catheter in the subjects′ nondominant arm and collected a fasting blood sample (baseline, 0 h). Then, subjects drank the soluble GCPE nutraceutical dissolved in 200 mL of water. […] On the sampling days, volunteers remained at the HNU, where a (poly)phenol-free diet was provided. Half an hour after consuming the nutraceutical, volunteers ate a breakfast consisting of ham, cheese, white bread, and a yogurt. Lunch (paella, bread, and yogurt) and an afternoon snack (muffin and yogurt) were eaten 5 and 9 h, respectively, after consuming the nutraceutical. Water and isotonic beverages were freely available. […] The same protocol was followed during visits at the end of the 8-week intervention. On each occasion, two days before each visit to the HNU, subjects consumed a low (poly)phenol diet free of foods containing hydroxycinnamates such as coffee, herbal teas, red wine, artichokes, whole grain cereals, vegetables, fruits and fruit juices, and dried fruits. Only banana, watermelon, cantaloupes, and potatoes were allowed.
(§2) Blood samples were immediately centrifuged (10 min, 3000 rpm, 4 °C) to obtain plasma. […] All biological samples were stored at −80 °C until analysis.
(§3) To extract plasma metabolites, 10 µL of 50% (v/v) aqueous formic acid, and 900 µL cold acetonitrile containing 50 µL of 10% (w/v) ascorbic acid were added to 400 µL defrosted plasma. Samples were vortexed and centrifuged (14,000 rpm, 10 min, 4 °C), repeating the extraction and combining the two supernatants, which were reduced to dryness under nitrogen [13]. Dried samples were resuspended in 150 µL of 0.1% aqueous formic acid (containing 10% acetonitrile acidified with 0.1% formic acid), centrifuged (15 min, 14,000 rpm, 4 °C), and the supernatant collected. Urine samples were diluted 1:1 with Milli-Q water and centrifuged (14,000 rpm, 20 min, 4 °C) prior to analysis. Phosphate-buffered saline (3 mL) was added to a representative 300 mg sample of thawed feces, homogenized in an ultrasound bath during 10 min, centrifuged (14,000 rpm, 20 min, 4 °C), and the supernatants collected.
(§4) Mobile phase A was 0.1% formic acid in Milli-Q water, and mobile phase B was acetonitrile containing 0.1% formic acid at a 0.3 mL/min flow rate. […] Metabolites were identified based on their retention time using authentic standards when possible. […] Urine concentration of excreted metabolites was normalized to the total volume excreted in each studied interval.
(§5) Plasma (30 µL), urine (5 µL) and fecal extracts (5 µL) were filtered through 0.45 µm
(§6) cellulose-acetate membrane filters and injected into an Agilent 1200 series LC system
(§7) ESI-Jet Stream Technology (Agilent Technologies). A reverse-phase Ascentis Express
(§8) C18 (15 cm x 3 mm, 2.7 µm) column (Sigma-Aldrich Quimica, Madrid), preceded by a
(§9) phase A was 0.1% formic acid in Milli-Q water, and mobile phase B was acetonitrile
(§10) containing 0.1% formic acid at a 0.3 mL/min flow rate. The gradient started with 10% B
(§11) at 0 min, 30% B at 10 min, 40% B at 15 min, reaching 50% B at 20 min. The starting
(§12) gradient was then re-established in 2 min and maintained for 8 min to re-equilibrate the

[2] = Urinary excretion of phenolic metabolites after intake of the GCPE nutraceutical; conditions: for Cumulative urinary excretion, Total 0–24 h / Urinary excretion: urine; for Cumulative urinary excretion, Total 0–24 h: mean ± SEM, n = 9
Method: as §1, §2, §3, §4, §5, §6, §7, §8, §9, §10, §11, §12

[3] = Plasma pharmacokinetics of phenolic metabolites after intake of the GCPE nutraceutical (LC-MS-QToF); conditions: for Cmax: mean ± SEM, n = 9; for AUC(0-t) / Tmax: 300 mg hydroxycinnamic acids; for AUC(0-t): AUC0–24h; for Tmax: Tmax (h) or Range
[4] = week 8, listed as 3′-hydroxyphenylacetic acid
[5] = week 0, GCPE nutraceutical with 300 mg hydroxycinnamic acids
[6] = week 0, first peak where biphasic
[7] = week 8, GCPE nutraceutical with 300 mg hydroxycinnamic acids
[8] = week 8, first peak where biphasic
[9] = human, oral, week 0, first peak where biphasic
[10] = human, oral, week 8, first peak where biphasic
[11] = human, oral, 300 mg, Cmax, week 0, GCPE nutraceutical with 300 mg hydroxycinnamic acids
[12] = human, oral, 300 mg, Cmax, week 8, GCPE nutraceutical with 300 mg hydroxycinnamic acids

Row | Structure (SMILES) | Amount of fecal metabolite excreted at 0 h ([1]; week 0, mean ± SEM, n = 9) | Amount of fecal metabolite excreted at 0 h ([1]; week 8) | Amount of fecal metabolite excreted at 24 h ([1]; week 0) | Amount of fecal metabolite excreted at 24 h ([1]; week 8) | Cumulative urinary excretion, Total 0–24 h ([2]; week 0) | Cumulative urinary excretion, Total 0–24 h ([2]; week 8) | Amount excreted in urine, 0- 3 h ([2]; week 0, interval 0–3 h) | Amount excreted in urine, 3-6 h ([2]; week 0, interval 3–6 h) | Amount excreted in urine, 6-9 h ([2]; week 0, interval 6–9 h) | Amount excreted in urine, 9-11 h ([2]; week 0, interval 9–11 h) | Amount excreted in urine, 11-24 h ([2]; week 0, interval 11–24 h) | Amount excreted in urine, 0- 3 h ([2]; week 8, interval 0–3 h) | Amount excreted in urine, 3-6 h ([2]; week 8, interval 3–6 h) | Amount excreted in urine, 6-9 h ([2]; week 8, interval 6–9 h) | Amount excreted in urine, 9-11 h ([2]; week 8, interval 9–11 h) | Amount excreted in urine, 11-24 h ([2]; week 8, interval 11–24 h) | AUC0–24h ([3]; week 0) | Cmax [3, 5] | Tmax (h) or Range [3, 6] | AUC0–24h ([3]; week 8) | further results
1 | O=C(O)Cc1cccc(O)c1 [3′-Hydroxyphenylacetic acid] | 0.31 ± 0.09 µmol/g | 0.18 ± 0.08 µmol/g | 0.21 ± 0.08 µmol/g | 0.11 ± 0.04 µmol/g | 12 ± 3 µmol | 9 ± 2 µmol | 1.6 ± 0.5 µmol | 1 ± 0.2 µmol | 0.8 ± 0.2 µmol | 0.53 ± 0.09 µmol | 2.5 ± 0.7 µmol | 1 ± 0.2 µmol | 0.7 ± 0.2 µmol | 0.7 ± 0.1 µmol | 0.6 ± 0.2 µmol | 1.8 ± 0.6 µmol | 2.6 ± 0.9 µM/min | 200 ± 70 nM | 8 ± 2 h | 1.6 ± 0.6 µM/min | Amount of fecal metabolite excreted at 0 h ([1]; week 0, mean ± SEM, n = 9, listed as 3′-hydroxyphenylacetic acid): 0.31 µmol/g; Amount of fecal metabolite excreted at 0 h [1, 4]: 0.18 µmol/g; Amount of fecal metabolite excreted at 24 h ([1]; week 0, listed as 3′-hydroxyphenylacetic acid): 0.21 µmol/g; Amount of fecal metabolite excreted at 24 h [1, 4]: 0.11 µmol/g; Amount excreted in urine, TOTAL ([2]; week 0, Table S5 total): 12 ± 3 µmol; Cmax [3, 7]: 150 ± 50 nM; Tmax (h) or Range [3, 8]: 5 ± 1 h
2 | COc1cc(/C=C/C(=O)OC2[C@H](O)CC(O)(C(=O)O)C[C@H]2O)ccc1O (some centres unmarked) [4-Feruloylquinic acid] | – | 0.001 ± 0.001 µmol/g | – | 0.0004 ± 0.0004 µmol/g | 0.4 ± 0.2 µmol | 0.4 ± 0.1 µmol | 0.2 ± 0.1 µmol | 0.15 ± 0.05 µmol | 0.02 ± 0.01 µmol | 0.003 ± 0.002 µmol | – | 0.21 ± 0.08 µmol | 0.13 ± 0.03 µmol | 0.03 ± 0.01 µmol | – | 0.02 ± 0.02 µmol | 0.06 ± 0.01 µM/min | 29 ± 4 nM | 0.9 ± 0.1 h | 0.07 ± 0.01 µM/min | Cmax [3, 7]: 31 ± 4 nM; Tmax (h) or Range [3, 8]: 0.9 ± 0.1 h
3 | O=C(O)c1ccc(O)cc1 [4-Hydroxybenzoic acid] | 0.004 ± 0.004 µmol/g | 0.006 ± 0.004 µmol/g | 0.0006 ± 0.0004 µmol/g | 0.01 ± 0.01 µmol/g | 1.3 ± 0.2 µmol | 1.01 ± 0.09 µmol | 0.3 ± 0.2 µmol | 0.11 ± 0.02 µmol | 0.1 ± 0.02 µmol | 0.09 ± 0.01 µmol | 0.29 ± 0.04 µmol | 0.14 ± 0.02 µmol | 0.1 ± 0.01 µmol | 0.09 ± 0.02 µmol | 0.08 ± 0.02 µmol | 0.26 ± 0.03 µmol | – | – | – | – | Urinary excretion ([2]; week 0): 1.3 µmol/24 h; Urinary excretion ([2]; week 8): 1.01 µmol/24 h; AUC(0-t) ([3]; human, oral, week 0): 0.9 ± 0.2 µM·h; AUC(0-t) ([3]; human, oral, week 8): 0.5 ± 0.2 µM·h; Tmax [3, 9]: 7 ± 2 h; Tmax [3, 10]: 5 ± 3 h; Cmax [3, 11]: 90 ± 10 nM; Cmax [3, 12]: 80 ± 10 nM
4 | COc1cc(CC(=O)O)ccc1O [4′-Hydroxy-3′-methoxyphenylacetic acid] | 0.007 ± 0.005 µmol/g | 0.0006 ± 0.0006 µmol/g | 0.02 ± 0.01 µmol/g | 0.003 ± 0.003 µmol/g | 13.2 ± 0.9 µmol | 12 ± 1 µmol | 1.3 ± 0.2 µmol | 0.9 ± 0.2 µmol | 0.9 ± 0.2 µmol | 0.7 ± 0.1 µmol | 3.6 ± 0.3 µmol | 1.5 ± 0.2 µmol | 0.8 ± 0.1 µmol | 1 ± 0.2 µmol | 0.68 ± 0.15 µmol | 2.9 ± 0.7 µmol | 1.4 ± 0.9 µM/min | 140 ± 60 nM | 7 ± 4 h | 1.5 ± 0.8 µM/min | Cmax [3, 7]: 120 ± 50 nM; Tmax (h) or Range [3, 8]: 4 ± 3 h
5 | COc1cc(/C=C/C(=O)O[C@@H]2C[C@@](O)(C(=O)O)C[C@@H](O)[C@@H]2O)ccc1O [5-Feruloylquinic acid] | 0.0009 ± 0.0007 µmol/g | 0.002 ± 0.002 µmol/g | 0.002 ± 0.001 µmol/g | 0.0003 ± 0.0003 µmol/g | 1.5 ± 0.2 µmol | 1.5 ± 0.2 µmol | 0.8 ± 0.2 µmol | 0.5 ± 0.1 µmol | 0.13 ± 0.04 µmol | 0.03 ± 0.01 µmol | 0.09 ± 0.01 µmol | 0.8 ± 0.1 µmol | 0.39 ± 0.07 µmol | 0.2 ± 0.04 µmol | 0.05 ± 0.03 µmol | 0.08 ± 0.02 µmol | 0.09 ± 0.02 µM/min | 32 ± 4 nM | 0.9 ± 0.1 h | 0.08 ± 0.02 µM/min | Cmax [3, 7]: 34 ± 5 nM; Tmax (h) or Range [3, 8]: 0.9 ± 0.1 h
6 | O=C(O)CCc1ccc(O)c(O)c1 [DHCA, 3-(3′,4′-Dihydroxyphenyl)propanoic acid] | 0.011 ± 0.007 µmol/g | 0.005 ± 0.002 µmol/g | 0.008 ± 0.006 µmol/g | 0.0001 ± 0.0001 µmol/g | 16 ± 2 µmol | 31 ± 5 µmol | 0.5 ± 0.1 µmol | 0.37 ± 0.09 µmol | 2.3 ± 0.8 µmol | 2.7 ± 0.6 µmol | 7 ± 1 µmol | 1 ± 0.4 µmol | 1.4 ± 0.4 µmol | 3.8 ± 0.9 µmol | 3.1 ± 0.8 µmol | 6 ± 2 µmol | – | – | – | – | Urinary excretion ([2]; week 0): 16 µmol/24 h; Urinary excretion ([2]; week 8): 31 µmol/24 h; Amount excreted in urine, TOTAL ([2]; week 0, Table S5 total): 16 ± 2 µmol; Amount excreted in urine, 0 h ([2]; week 8, 0 h (before intake on sampling day)): 15 ± 4 µmol; Amount excreted in urine, TOTAL ([2]; week 8, Table S6 total): 31 ± 5 µmol; AUC(0-t) ([3]; human, oral, week 0): 2 ± 0.6 µM·h; AUC(0-t) ([3]; human, oral, week 8): 2.1 ± 0.5 µM·h; Tmax [3, 9]: 10.2 ± 0.3 h; Tmax [3, 10]: 9.4 ± 0.5 h; Cmax [3, 11]: 220 ± 60 nM; Cmax [3, 12]: 220 ± 50 nM
